From patent US20080268535A1, “Method for Inducing the Differentiation of Human Myelogenous Leukemia Cells Into Megakarocytes or Thrombocytes” (EWHA University - Industry Collaboration Foundation, priority 2005, published 2008)
“Also recorded” adds a separate entry of the source.

Columns and labels:
Type in all cases: cell-based, human
[1] = system: HEL cells; experiment: Cell differentiation of HEL cells, optical microscopy; details: 5 μg/ml (R)-NALPCE, 10 nmole PMA or 50 ng/ml TPO, 5 days
Method: HEL cells were aliquoted at a density of 3×10^5 cells per well in 6-well plates and treated with 5 μg/ml of (R)-NALPCE, 10 nmole of PMA, or 50 ng/ml of TPO, followed by incubation in a day-dependent manner for 5 days. They were observed under an optical microscope with 200× magnification.

[2] = system: K562 cells; experiment: Cell differentiation of K562 cells on OP9 cells, optical microscopy; details: for cell morphology (optical microscope): 5 days
Method: A stromal line of OP9 cells derived from […] was aliquoted at a density of 1×10^5 cells in 6-well plates and incubated for 24 hrs. After the OP9 cells were uniformly attached onto the bottom of the plates, K562 cells were layered at a density of 1×10^5 cells on the OP9 cells in 6-well plates. The cells were treated with 40 μg/ml of (R)-NALPCE, or 500 pmole, 10 nmole or 50 nmole of PMA before incubation for 5 days. They were observed under an optical microscope with 200× magnification.

[3] = system: K562 cells; experiment: Differentiation inductivity, lineage receptor expression by FACS, K562 cells
Method: K562 cells were aliquoted at a density of 2×10^5 per well in 6-well plates and treated with 40 μg/ml of (R)-NALPCE or 30 nM of PMA (12-phorbol myristate-13-acetate, Calbiochem.), followed by incubation for 4 days. After centrifugation (1,000 rpm, 10 min), the cell pellets thus obtained were washed three times with 0.01% bovine serum albumin (BSA) in PBS. The cells were incubated with 10 μl of anti-CD41-fluorescein-5-isothiocyanate (FITC) (Dako Chemicals, Carpenteria, Calif.), 20 μl of anti-CD16-Cy-Chrome (Cy) (BD Pharmingen), 10 μl of anti-glycophorin ACD235a-phycoerythrin (PE) (Dako Chemicals, Carpenteria, Calif.), and 20 μl of anti-CD14-allophycocyanin (APC) (BD Pharmingen) in 200 μl of 0.01% bovine serum albumin (BSA)-PBS at 4° C. for 50 min while spinning to realize homogeneous fluorescent staining. After centrifugation (1,000 rpm, 10 min), the cell pellets thus obtained were washed three times with 0.01% bovine serum albumin (BSA) in PBS. Fluorescence was analyzed on a fluorescence-activated cell sorter (FACS) (Aria) using a Cellquest program.

[4] = system: HEL cells; experiment: Differentiation inductivity, lineage receptor expression by FACS, HEL cells; details: 5 μg/ml (R)-NALPCE 5 days or 10 nM PMA 3 days
Method: HEL cells were aliquoted at a density of 3×10^5 cells per well in 6-well plates and treated separately with 5 μg/ml of (R)-NALPCE and 10 nM of 12-phorbol myristate-13-acetate (PMA) (Calbiochem.), followed by incubation for 5 and 3 days, respectively. After centrifugation (1,000 rpm, 10 min), cell pellets thus obtained were washed three times with 0.01% bovine serum albumin (BSA) in PBS and incubated with 10 μl of anti-CD61-fluorescein-5-isothiocyanate (FITC) (Dako Chemicals, Carpenteria, Calif.), 20 μl of anti-CD16-Cy-Chrome (Cy) (BD Pharmingen), 10 μl of anti-glycophorin ACD235a-phycoerythrin (PE) (Dako Chemicals, Carpenteria, Calif.), and 20 μl of anti-CD14-allophycocyanin (APC) (BD Pharmingen) in 200 μl of 0.01% bovine serum albumin (BSA)-PBS at 4° C. for 50 min with spinning so as to achieve homogenous fluorescent staining over the cells. After centrifugation (1,000 rpm, 10 min), the cell pellets thus obtained were washed three times with 0.01% bovine serum albumin (BSA) in PBS. Fluorescence was analyzed on a fluorescence-activated cell sorter (FACS) (Aria) using a Cellquest program.

Molecule | cell morphology (optical microscope) [1] | production or secretion of thrombocytes by differentiated megakaryocytes ([2]; (R)-NALPCE with OP9 cells, PMA treatment) | cell morphology (optical microscope) ([2]; K562 cells on OP9 cells, 500 pmole of PMA) | cell morphology (optical microscope) ([2]; K562 cells on OP9 cells, 10 nmole of PMA) | thrombocyte-like morphology ([2]; K562 cells on OP9 cells, 10 nmole of PMA, 5 days or more after treatment) | cell morphology (optical microscope) ([2]; K562 cells on OP9 cells, 50 nmole of PMA) | expression of CD41, CD16, glycophorin A and CD14 receptors ([3]; K562 cells, 40 μg/ml (R)-NALPCE or 30 nM PMA, 4 days) | number of cells expressing CD41, PMA versus (R)-NALPCE ([3]; leukemia cells derived from human bone marrow, without OP9 cells) | expression of CD61, CD235a, CD16 and CD14 receptors [4]
TPO: TPO, comparison agent applied at 50 ng/ml to HEL cells; abbreviation not expanded in the text | did not undergo significant change | – | – | – | – | – | – | – | –
CCCCCCCCCCCCCC(=O)O[C@@H]1[C@@H](C)[C@@]2(O)[C@@H](C=C(CO)C[C@]3(O)C(=O)C(C)=C[C@@H]23)[C@@H]2C(C)(C)[C@]12OC(C)=O [PMA, phorbol 12-myristate 13-acetate] | increased in size, but with morphology different from that upon treatment with (R)-NALPCE, and differentiated into macrophages | could not secrete thrombocytes; also recorded: could not produce thrombocyte-like cells | did not differentiate, but proliferated, like a control | increase in size, but with morphology different from that of those treated with (R)-NALPCE | no morphology similar to thrombocytes was observed | differentiate into macrophages | CD41 (megakaryocyte-specific receptor), CD16 (neutrophil-specific receptor), CD14 (monocyte-specific receptor) were expressed, particularly with a great increase of CD41 | increased in number more in a medium containing PMA than in a medium containing (R)-NALPCE | CD61 (megakaryocyte-specific receptor), CD16 (neutrophil-specific receptor), and CD14 (monocyte-specific receptor) were expressed, particularly with a great increase of CD61
